Data taken from patent US20160296499A1, “Spiroindoline Antiparasitic Derivatives” (ZOETIS SERVICES LLC, priority 2013, published 2016).
Where two headings read alike, the source gives them in different places.

Experiments:
Haemonchus contortus L3 = assay: Haemonchus contortus, Larvae Stage 3 (HcL3) In Vitro Assay; details: Haemonchus contortus
[1] = molecular target: T1, bovine vesicular acetylcholine transporter (VAChT) (Bos taurus, UniProt E1BK36); assay: Radioligand Binding Assay; details: Bovine binding Ki, CHO-K1 membranes with recombinant bovine VAChT, [3H]Compound X6 0.3 nM
T1 sequence (E1BK36 1-524): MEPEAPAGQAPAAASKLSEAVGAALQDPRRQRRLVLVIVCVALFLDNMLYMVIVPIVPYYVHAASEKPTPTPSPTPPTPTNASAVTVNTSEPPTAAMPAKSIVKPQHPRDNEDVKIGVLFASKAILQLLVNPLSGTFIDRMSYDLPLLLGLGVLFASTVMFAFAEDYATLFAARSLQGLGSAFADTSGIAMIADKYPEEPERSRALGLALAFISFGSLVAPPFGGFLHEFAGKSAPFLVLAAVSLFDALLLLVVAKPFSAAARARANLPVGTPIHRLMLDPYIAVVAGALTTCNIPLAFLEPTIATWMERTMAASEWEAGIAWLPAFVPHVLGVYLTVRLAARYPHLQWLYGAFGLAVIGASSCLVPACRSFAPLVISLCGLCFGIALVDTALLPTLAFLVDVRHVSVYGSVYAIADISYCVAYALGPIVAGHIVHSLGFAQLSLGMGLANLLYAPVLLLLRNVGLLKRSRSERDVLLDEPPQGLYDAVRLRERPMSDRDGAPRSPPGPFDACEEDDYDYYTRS

[2] = system: Dirofilaria immitis microfilariae; assay: Dirofilaria immitis, Microfilariae (DiMF) In Vitro Assay; details: Dirofilaria immitis
[3] = 96 h, read-out: HcL3 MEC, Minimal Effective Concentration whereby worm motility is inhibited by approximately 70%, 37° C., tested 0.001-100 μM
[4] = 72 h, read-out: Di MF, MEC, decrease in microfilariae motility by visual assessment, curve starting at 100 μM
[5] = 96 hours, 37° C., read-out: HcL3 MEC

SMILES | minimal effective concentration (Haemonchus contortus L3; [3]) [µM] | Ki [1] [nM] | minimal effective concentration [2, 4] [µM] | minimal effective concentration (Haemonchus contortus L3; [5]) [µM] | minimal effective concentration ([2]; 72 hours, read-out: Di MF) [µM]
O=C(NCc1ccnc(Cl)c1)N1CC2(CCN(C/C=C/c3ccc(Cl)cc3)CC2)c2c(SC(F)(F)F)cccc21 [Example 89, (E)-1′-(3-(4-chlorophenyl)allyl)-N-((2-chloropyridin-4-yl)methyl)-4-(trifluoromethylthio)spiro[indoline-3,4′-piperidine]-1-carboxamide] | 100 | 774 | 6.9 |  | 
O=C(NCc1ccnc(F)c1)N1CC2(CCN(C/C=C/c3ccc(Cl)cc3)CC2)c2c(F)cc(C(F)(F)F)cc21 [Example 90, (E)-1′-(3-(4-chlorophenyl)allyl)-4-fluoro-N-((2-fluoropyridin-4-yl)methyl)-6-(trifluoromethyl)spiro[indoline-3,4′-piperidine]-1-carboxamide] | 1.8 | 256 | 10 |  | 
O=C(NCc1ccnc(F)c1)N1CC2(CCN(C/C=C/c3ccc(Cl)cc3)CC2)c2c(-c3ccccc3)cccc21 [Example 91, (E)-1′-(3-(4-chlorophenyl)allyl)-N-((2-fluoropyridin-4-yl)methyl)-4-phenylspiro[indoline-3,4′-piperidine]-1-carboxamide] | 100 | 295 | 3.3 |  | 
O=C(NCc1ccnc(F)c1)N1CC2(CCN(C/C=C/c3ccc(Cl)cc3)CC2)c2c1cccc2C(F)(F)F [Example 92, (E)-1′-(3-(4-chlorophenyl)allyl)-N-((2-fluoropyridin-4-yl)methyl)-4-(trifluoromethyl)spiro[indoline-3,4′-piperidine]-1-carboxamide] | 5 | 796 | 5 |  | 
O=C(NCc1ccnc(F)c1)N1CC2(CCN(C/C=C/c3ccc(Cl)cc3)CC2)c2c(C3CC3)cccc21 [Example 93, (E)-1′-(3-(4-chlorophenyl)allyl)-4-cyclopropyl-N-((2-fluoropyridin-4-yl)methyl)spiro[indoline-3,4′-piperidine]-1-carboxamide] | 100 | 958 | 5.7 |  | 
O=C(NCc1ccnc(F)c1)N1CC2(CCN(C/C=C/c3ccc(Cl)cc3)CC2)c2c(OC(F)(F)F)cccc21 [Example 94, (E)-1′-(3-(4-chlorophenyl)allyl)-N-((2-fluoropyridin-4-yl)methyl)-4-(trifluoromethoxy)spiro[indoline-3,4′-piperidine]-1-carboxamide] | 100 | 3930 | 3.3 |  | 
O=C(NCc1cnc(Cl)s1)N1CC2(CCN(C/C=C/c3ccc(Cl)cc3)CC2)c2c(OC(F)(F)F)cccc21 [Example 95, (E)-1′-(3-(4-chlorophenyl)allyl)-N-((2-chlorothiazol-5-yl)methyl)-4-(trifluoromethoxy)spiro[indoline-3,4′-piperidine]-1-carboxamide] | 100 | 1010 | 3.3 |  | 
N#Cc1ccc(/C=C/CN2CCC3(CC2)CN(C(=O)NCc2ccnc(Cl)c2)c2cc(-c4ccccc4C(F)(F)F)ccc23)cc1 [Example 96, (E)-N-((2-chloropyridin-4-yl)methyl)-1′-(3-(4-cyanophenyl)allyl)-6-(2-(trifluoromethyl)phenyl)spiro[indoline-3,4′-piperidine]-1-carboxamide] | 100 | 25.4 | 5.7 |  | 
N#Cc1ccc(/C=C/CN2CCC3(CC2)CN(C(=O)NCc2ccnc(Cl)c2)c2ccc([N+](=O)[O-])cc23)cc1 [Example 97, (E)-N-((2-chloropyridin-4-yl)methyl)-1′-(3-(4-cyanophenyl)allyl)-5-nitrospiro[indoline-3,4′-piperidine]-1-carboxamide] | 33 | 63.7 | 5.7 |  | 
N#Cc1ccc(/C=C/CN2CCC3(CC2)CN(C(=O)NCc2ccnc(Cl)c2)c2c(F)ccc(C(F)(F)F)c23)cc1 [Example 98, (E)-N-((2-chloropyridin-4-yl)methyl)-1′-(3-(4-cyanophenyl)allyl)-7-fluoro-4-(trifluoromethyl)spiro[indoline-3,4′-piperidine]-1-carboxamide] | 100 | 1570 | 10 |  | 
N#Cc1ccc(/C=C/CN2CCC3(CC2)CN(C(=O)NCc2ccnc(Cl)c2)c2cccc(C(F)(F)F)c23)cc1 [Example 99, (E)-N-((2-chloropyridin-4-yl)methyl)-1′-(3-(4-cyanophenyl)allyl)-4-(trifluoromethyl)spiro[indoline-3,4′-piperidine]-1-carboxamide] | 10 | 306 | 5.7 |  | 
O=C(NCc1ccnc(F)c1)N1CC2(CCN(C/C=C/c3ccc(F)cc3)CC2)c2ccc(OC(F)(F)F)cc21 [Example 100, (E)-1′-(3-(4-fluorophenyl)allyl)-N-((2-fluoropyridin-4-yl)methyl)-6-(trifluoromethoxy)spiro[indoline-3,4′-piperidine]-1-carboxamide] | 3.3 | 121 | 10 |  | 
O=C(NCc1ccnc(F)c1)N1CC2(CCN(C/C=C/c3ccc(F)cc3)CC2)c2ccc(C(F)(F)F)cc21 [Example 101, (E)-1′-(3-(4-fluorophenyl)allyl)-N-((2-fluoropyridin-4-yl)methyl)-6-(trifluoromethyl)spiro[indoline-3,4′-piperidine]-1-carboxamide] |  | 65.2 |  | 3.3 | 10
O=C(NCc1ccnc(Cl)c1)N1CC2(CCN(C/C=C/c3ccc(Cl)c(Cl)c3)CC2)c2c(Br)cccc21 [Example 102, (E)-4-bromo-N-((2-chloropyridin-4-yl)methyl)-1′-(3-(3,4-dichlorophenyl)allyl)spiro[indoline-3,4′-piperidine]-1-carboxamide] | 5.3 | 144 | 10 |  | 
O=C(NCc1ccnc(F)c1)N1CC2(CCN(C/C=C/c3ccc(Cl)c(Cl)c3)CC2)c2c(Br)cccc21 [Example 103, 4-bromo-1′-[(E)-3-(3,4-dichlorophenyl)allyl]-N-[(2-fluoro-4-pyridyl)methyl]spiro[indoline-3,4′-piperidine]-1-carboxamide] | 3.3 | 466 | 5.7 |  | 
O=C(NCc1ccnc(F)c1)N1CC2(CCN(C/C=C/c3ccc(Cl)c(Cl)c3)CC2)c2cc(Br)ccc21 [Example 104, 5-bromo-1′-[(E)-3-(3,4-dichlorophenyl)allyl]-N-[(2-fluoro-4-pyridyl)methyl]spiro[indoline-3,4′-piperidine]-1-carboxamide] |  | 43.7 |  | 3.3 | 10
O=C(NCc1ccnc(F)c1)N1CC2(CCN(C/C=C/c3ccc(Cl)cc3)CC2)c2cc(Br)ccc21 [Example 105, 5-bromo-1′-[(E)-3-(4-chlorophenyl)allyl]-N-[(2-fluoro-4-pyridyl)methyl]spiro[indoline-3,4′-piperidine]-1-carboxamide] | 3.3 | 32.2 | 3.3 |  | 
O=C(NCc1ccnc(F)c1)N1CC2(CCN(C/C=C/c3ccc(F)cc3)CC2)c2cc(Br)ccc21 [Example 106, 5-bromo-1′-[(E)-3-(4-fluorophenyl)allyl]-N-[(2-fluoro-4-pyridyl)methyl]spiro[indoline-3,4′-piperidine]-1-carboxamide] | 3.3 | 72.7 | 10 |  | 
O=C(NCc1ccnc(F)c1)N1CC2(CCN(C/C=C/c3ccc(C(F)(F)F)cc3)CC2)c2cc(Br)ccc21 [Example 107, 5-bromo-N-[(2-fluoro-4-pyridyl)methyl]-1′-[(E)-3-[4-(trifluoromethyl)phenyl]allyl]spiro[indoline-3,4′-piperidine]-1-carboxamide] | 3.3 | 486 | 3.3 |  | 
N#Cc1cccc(-c2ccc3c(c2)C2(CCN(C/C=C/c4ccc(Cl)c(Cl)c4)CC2)CN3C(=O)NCc2ccnc(F)c2)c1 [Example 108, 5-(3-cyanophenyl)-1′-[(E)-3-(3,4-dichlorophenyl)allyl]-N-[(2-fluoro-4-pyridyl)methyl]spiro[indoline-3,4′-piperidine]-1-carboxamide] | 100 | 32600 | 3.3 |  | 
N#Cc1ccc(-c2ccc3c(c2)C2(CCN(C/C=C/c4ccc(Cl)cc4)CC2)CN3C(=O)NCc2ccnc(F)c2)cn1 [Example 109, 1′-[(E)-3-(4-chlorophenyl)allyl]-5-(6-cyano-3-pyridyl)-N-[(2-fluoro-4-pyridyl)methyl]spiro[indoline-3,4′-piperidine]-1-carboxamide] | 3.3 | 50.8 | 1.8 |  | 
